Measured values taken from ChEMBL document CHEMBL1821595, “Covalent stabilization of a small molecule-RNA complex” (Bioorg Med Chem Lett, 2011).
Calls of active or inactive are those of the source. No cut-off for these calls is given here.

How the values were obtained:
Format in all cases: nucleic-acid assay
Nucleic Acid [1] = test: Binding affinity to thiol-bearing RNA1 aptamer assessed as RNA1-compound conjugate formation at 1 uM by MALDI-MS 123 analysis
Nucleic Acid [2] = test: Binding affinity to thiol-bearing RNA2 aptamer assessed as RNA2-compound conjugate formation at 1 uM by MALDI-MS 123 analysis
Nucleic Acid [3] = test: Binding affinity to thiol-bearing RNA2 aptamer assessed as RNA2-compound conjugate formation at 1 uM after 1 hr by MALDI-MS analysis in presence of complementary DNA
Nucleic Acid [4] = test: Binding affinity to thiol-bearing RNA1 aptamer assessed as RNA1-compound conjugate formation at 1 uM after 1 hr by MALDI-MS analysis in presence of complementary DNA
Nucleic Acid [5] = test: Binding affinity to thiol-bearing RNA1 aptamer assessed as RNA1-compound conjugate formation at 1 uM after 1 hr by MALDI-MS analysis in presence of non-complementary DNA and 1 uM iodoacetamide
Nucleic Acid [6] = test: Covalent binding affinity to thiol-bearing RNA1 aptamer assessed as rate constant at 1 uM by MALDI-MS analysis
Nucleic Acid [7] = test: Binding affinity to RNA1-DNA hybrid assessed as inhibition of RNA1/DNA hybrid-compound conjugate formation at 1 uM after 1 hr by MALDI-MS analysis
Nucleic Acid [8] = test: Binding affinity to thiol-bearing RNA1 aptamer assessed as RNA1-compound conjugate formation at 1 uM after 1 hr by MALDI-MS analysis in presence of non-complementary DNA

Activity (Nucleic Acid [1]) | Activity (Nucleic Acid [2]) | Activity (Nucleic Acid [3]) | Activity (Nucleic Acid [4]) | Activity (Nucleic Acid [5]) [%] | K (Nucleic Acid [6]) [×10⁻² /min] | Activity (Nucleic Acid [7]) | Activity (Nucleic Acid [8]) | SMILES
Active | Active | inactive | inactive | – | – | – | – | CC(C)[C@H](NC(=O)CBr)C(=O)NCc1ccc(Nc2cc(-c3ccccc3)nc3c(C(=O)N[C@@H](CCCNC(=N)N)C(N)=O)cccc23)cc1
90% | Active | – | – | 90 | 5.5 | inactive | inactive | N=C(N)NCCC[C@H](NC(=O)c1cccc2c(Nc3ccc(CNC(=O)CBr)cc3)cc(-c3ccccc3)nc12)C(N)=O
Active | Active | inactive | inactive | – | – | – | – | CC(C)[C@H](NC(=O)[C@H](CO)NC(=O)CBr)C(=O)NCc1ccc(Nc2cc(-c3ccccc3)nc3c(C(=O)N[C@@H](CCCNC(=N)N)C(N)=O)cccc23)cc1
